Values quoted from earlier work as cited in publication PMC12216204 (Scientific Reports, 2025).

Assays:
[1] = tested on: orthotopic MDA-MB-231 (TNBC) tumors
[2] = tested on: non-cancerous cells

| proteolytic stability | accumulation in mice bearing orthotopic MDA-MB-231 (TNBC) tumors [1] | Substance | uptake by the non-cancerous cells [2] |
| --- | --- | --- | --- |
| not proteolytically stable | – | WXEAAYQRFL [compound 18] | – |
| proteolytically stable | accumulated primarily at the tumor site | WXEAAYQkFL (head to tail) [cy18-4] | minimal uptake |
